This is an account of results in publication PMC9447431 (Journal of chemical information and modeling, 2021).

What all share (assay type): cell-based
Experiment [1] addresses T1, OPRD (Homo sapiens, UniProt P41143). Kind of experiment: qHTS cAMP assay, agonist mode, HDOR cells. The conditions noted are these: CHO-K1 cells expressing human δ-OPR (HDOR).
Experiment [2] addresses T2, OPRM (Homo sapiens, UniProt P35372). Briefly: cell-based.
The target in experiment [3] is T3, OPRK (Homo sapiens, UniProt P41145). Briefly: qHTS cAMP assay, agonist mode, HKOR cells.
T3 sequence (P41145 whole entry): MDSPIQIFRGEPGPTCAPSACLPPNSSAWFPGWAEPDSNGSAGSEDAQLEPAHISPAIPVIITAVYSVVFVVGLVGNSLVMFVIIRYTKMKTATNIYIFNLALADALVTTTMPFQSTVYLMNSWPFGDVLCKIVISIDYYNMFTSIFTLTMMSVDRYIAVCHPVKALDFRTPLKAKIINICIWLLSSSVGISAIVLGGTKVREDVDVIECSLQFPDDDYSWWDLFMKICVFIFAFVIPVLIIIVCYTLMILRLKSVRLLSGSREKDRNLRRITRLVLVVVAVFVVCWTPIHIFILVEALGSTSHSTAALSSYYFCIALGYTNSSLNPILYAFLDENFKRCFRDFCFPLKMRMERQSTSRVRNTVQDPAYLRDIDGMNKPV
Experiment [4] addresses T1, OPRD. Kind of experiment: qHTS cAMP assay, antagonist mode, HDOR cells.
The target of experiment [5] is T3, OPRK. Kind of experiment: cell-based.
The target in experiment [6] is T2, OPRM. Briefly: cell-based. The source holds these as a separate data set.
Where [7] appears, read: OPRK-agonist, CHO-K1 cells expressing human κ-OPR (HKOR), cAMP.

Read-outs that look alike come from different tables or passages of the source.

T2 sequence (P35372 whole entry): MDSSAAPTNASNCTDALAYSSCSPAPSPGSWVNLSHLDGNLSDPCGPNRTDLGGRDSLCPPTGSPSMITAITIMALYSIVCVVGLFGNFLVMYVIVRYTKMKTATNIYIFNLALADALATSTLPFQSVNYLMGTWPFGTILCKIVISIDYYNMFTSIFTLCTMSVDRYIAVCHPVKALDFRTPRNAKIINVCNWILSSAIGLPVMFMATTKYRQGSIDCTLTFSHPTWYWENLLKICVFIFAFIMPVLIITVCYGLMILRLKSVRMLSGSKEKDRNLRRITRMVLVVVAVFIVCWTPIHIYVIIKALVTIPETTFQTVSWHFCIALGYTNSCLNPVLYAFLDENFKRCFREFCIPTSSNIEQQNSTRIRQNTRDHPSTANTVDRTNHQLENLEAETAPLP
T1 sequence (P41143 whole entry): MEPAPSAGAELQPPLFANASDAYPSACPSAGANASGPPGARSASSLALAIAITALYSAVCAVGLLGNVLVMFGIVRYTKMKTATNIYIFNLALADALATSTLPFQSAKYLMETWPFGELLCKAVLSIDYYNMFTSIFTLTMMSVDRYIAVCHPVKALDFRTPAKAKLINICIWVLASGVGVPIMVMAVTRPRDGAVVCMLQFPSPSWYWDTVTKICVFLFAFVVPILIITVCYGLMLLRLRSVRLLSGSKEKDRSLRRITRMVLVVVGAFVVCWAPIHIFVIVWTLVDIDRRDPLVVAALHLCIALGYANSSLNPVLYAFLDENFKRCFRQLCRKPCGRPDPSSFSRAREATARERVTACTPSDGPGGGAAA

In turn, `CCCN(CCC)S(=O)(=O)c1ccc(C(=O)Nc2sc3c(c2C(=O)OC)CCN(CC)C3)cc1` [NCGC00139128-01] showed an AC50 in experiment [1] of 2060 nM.
Regarding `Cc1cccc(OCC(=O)NCC2(N3CCN(C)CC3)CCCCC2)c1C` [NCGC00118605-01], the AC50 in experiment [2] stood at 1830 nM. This counts as single-digit micromolar.
Turning to `Cc1cc(Cl)ccc1OCC(=O)N(Cc1ccc(N(C)C)cc1)CC1CCCO1` (centres unmarked) [NCGC00117293-01], in experiment [3] (setting [7]), the AC50 was 2500 nM.
`CN1CCN(C2(CNC(=O)c3ccc(C(C)(C)C)cc3)CCCCC2)CC1` [NCGC00118549-01] returned an AC50 in experiment [2] of 460 nM.
Turning to `O=C(CC(c1ccccc1)c1ccccc1)N1CCN(C(c2ccccc2)c2ccccc2)CC1` [NCGC00378879-01, NP-118809], the AC50 in experiment [2] worked out at 1830 nM.
Take `CCCC1=Nc2cc(C(=O)N3CCC(C)CC3)ccc2Sc2ccc(C)cc21` [NCGC00107633-01]: in experiment [2], the AC50 was found to be 920 nM.
Still for that read-out and setting: the figure for `O=C(O)c1ccc(O)c2ncc(N3CCCN(CCc4cccc5ccccc45)CC3)cc12` [NCGC00247751-02] is 650 nM; for `N#CC(CCCN1CCC(O)(c2ccc(Cl)cc2)CC1)(c1ccccc1)c1ccccc1` [NCGC00378719-01, VUF-2274] it is 410 nM.
With `Nc1ncnc2c1ncn2[C@@H]1O[C@@H]2COP(O)(=S)O[C@H]2[C@H]1O` (some centres unmarked) [NCGC00485585-01, Adenosine 3’,5’-cyclothiophosphate], the IC50 in experiment [4] (OPRD, antagonist mode, range given for all three receptors) is 40 to 70 nM; in experiment [5], 40 to 70 nM; in experiment [6] it was 40 to 70 nM. Also, the AC50 came to 40 nM in experiment [4] (OPRD-antagonist, HDOR cells, with 2nM dynorphin B); 70 nM in experiment [5]; 60 nM in experiment [6].
`COc1ccccc1N1CCN(Cc2cc(COC(C)C)c3cccnc3c2O)CC1` [NCGC00114968-02] displayed an AC50 in experiment [6] of 650 nM.
As for `CCC(=O)NCC(c1ccc2c(c1)OCO2)N1CCN(c2ccccc2)CC1` (centres unmarked) [NCGC00135974-01], the activity in experiment [3] (setting [7]) was half-maximal at 1160 nM (AC50).
Take `Nc1ncnc2c1nc(Cl)n2[C@@H]1O[C@@H]2COP(=O)(O)O[C@H]2[C@H]1O` [NCGC00485288-01, Tocladesine]: the AC50 in experiment [4] amounted to 460 nM; in experiment [5], 920 nM; in experiment [6], 1030 nM.
As to `O=C(NCCCc1nc2ccccc2n1Cc1c(F)cccc1Cl)C1CCCCC1` [NCGC00114741-01], half-maximal activity in experiment [2] (AC50) was put at 520 nM.
The same measure, in the same setting: the figure for `O=C(NCCCc1nc2ccccc2n1Cc1ccccc1Cl)C1CCCCC1` [NCGC00114743-01] is 1640 nM.
With `COc1ccc(NC(=O)Cn2c(=O)n(-c3ccc(CC(=O)NCC4CCCO4)cc3)c(=O)c3ccccc32)c(OC)c1` (centres unmarked) [NCGC00106344-01], in experiment [5], the AC50 stood at 2060 nM and the IC50 stood at 2060 nM.
`CO[C@H]1C[C@@H]2CC[C@@H](C)[C@@](O)(O2)C(=O)C(=O)N2CCCC[C@H]2C(=O)O[C@H]([C@H](C)C[C@@H]2CC[C@@H](OP(C)(C)=O)[C@H](OC)C2)CC(=O)[C@H](C)/C=C(\C)[C@@H](O)[C@@H](OC)C(=O)[C@H](C)C[C@H](C)/C=C/C=C/C=C/1C` [NCGC00346481-02, Ridaforolimus]: in experiment [3], the activity was half-maximal at 130 nM (AC50).
The compound `CCn1c(=N)n(CCOc2ccc(Br)cc2)c2ccccc21` [NCGC00141762-01] yielded an AC50 in experiment [2] of 2060 nM.
On to `Cc1cccc(-c2[nH]c(Cc3cccc(C(N)=O)c3)nc2-c2ccc3nccnc3c2)n1` [NCGC00386726-01, IN-1130], for which, in experiment [5], the AC50 stood at 2060 nM and the IC50 is 2060 nM.
In the case of `Cc1cn(CCN2CCN(c3ccccc3-c3cc(C#N)cc(C(=O)NCCCN4CCCC4)c3)CC2)c2ccccc12` [NCGC00356417-05, LLY-507], in experiment [2], the activity was half-maximal at 130 nM (AC50).
Same read-out and setting: the figure for `O=C(NCCN1CCC(n2c(=O)[nH]c3ccccc32)CC1)c1cc2cc(F)ccc2[nH]1` [NCGC00370807-05, FIPI] is 580 nM.
The compound `CCOC(=O)c1c(NC(=O)c2ccc(S(=O)(=O)N(C)C)cc2)sc2c1CCN(C)C2` [NCGC00136158-01] came in with an AC50 in experiment [1] of 2310 nM.
In turn, `O=C(Nc1ccccc1C(F)(F)F)N1CCC(CN2CCc3ccccc3C2)CC1` [NCGC00123899-01] had an AC50 in experiment [2] of 920 nM. This counts as sub-micromolar.
The compound `COc1ccccc1N1CCN(CC[C@@](C)(C(=O)C2CCCCC2)c2ccccc2)CC1` [NCGC00386484-01, LY 426965] came in with an AC50 in experiment [2] of 180 nM.
